Measured values from patent publication US20030162777A1, “Novel N-acylated heterocycles” (Recordati S.A., priority 2001, published 2003).
pKi: −log10 of the molar value.

These molecules were tested against T1, human 5HT1A-serotonergic receptor (Homo sapiens, UniProt P08908) (assay: Radioligand binding to recombinant 5-HT1A receptors). Conditions: [3H]8-OH-DPAT 1 nM, membranes of HeLa cells with human 5-HT1A receptor; Ki from IC50 by Cheng & Prusoff; read-out: Binding affinity for 5HT1A receptors, Ki.
T1 construct: expressed in transfected cells; host or cells: HeLa (human cell line), stably transfected; cell membranes used
T1 sequence (P08908 1-422): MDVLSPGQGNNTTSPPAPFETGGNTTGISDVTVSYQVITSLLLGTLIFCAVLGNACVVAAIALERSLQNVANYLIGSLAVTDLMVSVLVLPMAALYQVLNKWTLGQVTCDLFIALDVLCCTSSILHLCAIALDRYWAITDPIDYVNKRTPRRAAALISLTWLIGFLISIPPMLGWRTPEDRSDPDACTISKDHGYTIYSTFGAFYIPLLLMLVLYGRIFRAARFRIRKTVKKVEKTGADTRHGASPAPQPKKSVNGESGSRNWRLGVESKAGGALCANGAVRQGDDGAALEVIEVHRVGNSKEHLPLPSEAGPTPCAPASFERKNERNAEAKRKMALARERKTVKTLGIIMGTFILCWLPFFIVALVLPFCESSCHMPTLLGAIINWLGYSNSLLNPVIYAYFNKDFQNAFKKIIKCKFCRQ
Protocol: Genomic clone G-21 coding for the human 5HT1A-serotonergic receptor was stably transfected in a human cell line (HeLa). HeLa cells were grown as monolayers in Dulbecco's modified Eagle medium (DMEM), containing 10% foetal bovine serum, gentamicin ([…]) and 5% carbon dioxide, at 37° C. The cells were detached from the growth flask at 95% confluence by a cell scraper and were lysed in cold 5 mM Tris and 5 mM EDTA buffer (pH 7.4). The homogenates were centrifuged at 40000×g×20 minutes and the pellets were resuspended in a small volume of cold 5 mM Tris and 5 mM EDTA buffer (pH 7.4) and immediately frozen and stored at −70° C. until use. On the day of experiment, the cell membranes were resuspended in incubation buffer: 50 mM Tris HCl (pH 7.4), 2.5 mM MgCl2, […] (Fargin et al., Nature 335, 358-360, 1988). The membranes were incubated in a final volume of 1 ml for 30 minutes at 30° C. with 1 nM [^3H]8-OH-DPAT, in the absence or presence of the test compounds. Non-specific binding was determined in the presence of 10 μM 5-HT. Incubation was stopped by addition of cold Tris-HC 1 buffer and rapid filtration through a 0.2%-polyethyleneimine-pretreated Whatman-GF/B or Schleicher-&-Schuell-GF52 filter.
The affinity of the tested compounds was evaluated as inhibition of specific binding of the radioligand to 5-HT1A receptors (IC50) by using the non-linear curve-fitting program Allfit (De Lean et al., Am. J. Physiol. 235, E97-E102 (1978). The IC50 value was converted to an affinity constant (Ki) by the equation of Cheng & Prusoff (Cheng Y. C., Prusoff W. H., Biochem. Pharmacol. 22, 3099-3108 (1973)).

In order of falling pKi:
1. CC(C)(C)NC(=O)N1c2ccccc2CCC1CN1CCN(c2cccc3[nH]ccc23)CC1 (centres unmarked) [Example 69A12, 1-[1-(1,1-Dimethylethylaminocarbonyl)-1,2,3,4-tetrahydroquinoline-2-ylmethyl]-1-(4-indolyl)piperazine]  8.68
2. O=C(C1CCCCC1)N1c2ccccc2CCC1CN1CCN(Cc2cc(Cl)ccc2Cl)CC1 (centres unmarked) [Example 35A36, 1-(1-Cyclohexanecarbonyl-1,2,3,4-tetrahydroquinoline-2-ylmethyl)-4-(2,5-dichlorobenzyl)piperazine]  8.62
3. N#Cc1ccc(Cl)cc1N1CCN(CC2CCc3ccccc3N2C(=O)C2CCCCC2)CC1 (centres unmarked) [Example 35A23, 1-(5-chloro-2-cyanophenyl)-4-(1-cyclohexanecarbonyl-1,2,3,4-tetrahydroquinoline-2-ylmethyl)piperazine]  8.51
4. COc1ccc(C(=O)N2c3ccccc3CCC2CN2CCN(c3cccc4c3OCCO4)CC2)cc1 (centres unmarked) [Example 76A4, 1-(2,3-Dihydrobenzo[1,4]dioxin-5-yl)-4-[1-(4-methoxybenzoyl)-1,2,3,4-tetrahydroquinolin-2-ylmethyl]piperazine]  8.41
5. O=C(c1ccco1)N1c2ccccc2CCC1CN1CCN(c2cccc3c2OCCO3)CC1 (centres unmarked) [Example 76A3, 1-(2,3-Dihydrobenzo[1,4]dioxin-5-yl)-4-[1-(2-furanecarbonyl)-1,2,3,4-tetrahydroquinolin-2-ylmethyl]piperazine]  8.30
6. CCOc1cc(Cl)ccc1N1CCN(CC2CCc3ccccc3N2C(=O)C2CCCCC2)CC1 (centres unmarked) [Example 62A3, 1-(4-Chloro-2-ethoxyphenyl)-4-(1-cyclohexanecarbonyl-1,2,3,4-tetrahydroquinoline-2-ylmethyl)piperazine]  8.24
7. O=C(C1CCCCC1)N1c2ccccc2CCC1CN1CCN(c2ccccn2)CC1 (centres unmarked) [Example 72A93, 1-(1-Cyclohexanecarbonyl-1,2,3,4-tetrahydroquinolin-2-ylmethyl)-4-(2-pyridyl)piperazine]  8.11
8. O=C(C1CCCCC1)N1c2ccccc2CCC1CN1CCN(c2cc(Cl)ccc2F)CC1 (centres unmarked) [Example 60A1, 1-(5-Chloro-2-fluorophenyl)-4-(1-cyclohexanecarbonyl-1,2,3,4-tetrahydroquinoline-2-ylmethyl)piperazine]  8.09
9. O=C(Cc1ccsc1)N1c2ccccc2CCC1CN1CCN(c2cccc3c2OCCO3)CC1 (centres unmarked) [Example 76A7, 1-(2,3-Dihydrobenzo[1,4]dioxin-5-yl)-4-[1-[2-(3-thienyl)acetyl]-1,2,3,4-tetrahydroquinolin-2-ylmethyl]piperazine]  8.07
10. Cn1ccc2c(N3CCN(CC4CCc5ccccc5N4C(=O)C4CCCCC4)CC3)cccc21 (centres unmarked) [Example 15, 1-(1-Cyclohexanecarbonyl-1,2,3,4-tetrahydroquinoline-2-ylmethyl)-4-(1-methyl-4-indolyl)piperazine]  8.05
11. Cc1ccc(NC(=O)N2c3ccccc3CCC2CN2CCN(c3cccc4[nH]ccc34)CC2)cc1 (centres unmarked) [Example 69A3, 1-(4-Indolyl)-4-[1-(4-methylphenylaminocarbonyl)-1,2,3,4-tetrahydroquinoline-2-ylmethyl]piperazine]  8.03
12. O=C(c1ccccc1)N1c2ccccc2CCC1CN1CCN(c2cccc3[nH]ccc23)CC1 (centres unmarked) [Example 24A4, 1-(1-Benzoyl-1,2,3,4-tetrahydroquinoline-2-ylmethyl)-4-(4-indolyl)piperazine]  8.03
13. CCCCCNC(=O)N1c2ccccc2CCC1CN1CCN(c2cccc3[nH]ccc23)CC1 (centres unmarked) [Example 69A11, 1-(4-Indolyl)-4-(1-pentylaminocarbonyl-1,2,3,4-tetrahydroquinoline-2-ylmethyl]piperazine]  7.98
14. O=C(C1CCCCC1)N1c2ccc(F)cc2CCC1CN1CCN(c2ccccc2OCC(F)(F)F)CC1 (centres unmarked) [Example 5, 1-(1-Cyclohexanecarbonyl-6-fluoro-1,2,3,4-tetrahydroquinoline-2-ylmethyl)-4-[2-(2,2,2-trifluoroethoxy)phenyl]piperazine]  7.97
15. O=C(Nc1ccccc1)N1c2ccccc2CCC1CN1CCN(c2cccc3[nH]ccc23)CC1 (centres unmarked) [Example 31, 1-(4-Indolyl)-4-(1-phenylaminocarbonyl-1,2,3,4-tetrahydroquinoline-2-ylmethyl)piperazine]  7.89
16. O=C(c1cccnc1)N1c2ccccc2CCC1CN1CCN(c2cccc3[nH]ccc23)CC1 (centres unmarked) [Example 68A33, 1-(4-Indolyl)-4-[1-(3-pyridylcarbonyl)-1,2,3,4-tetrahydroquinoline-2-ylmethyl]piperazine]  7.88
17. O=C(Cc1ccccc1C(F)(F)F)N1c2ccccc2CCC1CN1CCN(c2cccc3[nH]ccc23)CC1 (centres unmarked) [Example 68A64, 1-(4-Indolyl)-4-[1-[2-(2-trifluoromethylphenylacetyl)]-1,2,3,4-tetrahydroquinoline-2-ylmethyl]piperazine]  7.87
18. Cc1cccc(NC(=O)N2c3ccccc3CCC2CN2CCN(c3cccc4[nH]ccc34)CC2)c1 (centres unmarked) [Example 69A1, 1-(4-Indolyl)-4-[1-(3-methylphenylaminocarbonyl)-1,2,3,4-tetrahydroquinoline-2-ylmethyl]piperazine]  7.76
19. O=C(c1ccc(N2CCOCC2)nc1)N1c2ccccc2CCC1CN1CCN(c2cccc3[nH]ccc23)CC1 (centres unmarked) [Example 68A52, 1-(4-Indolyl)-4-[1-[2-(4-morpholinyl)pyridine-5-carbonyl]-1,2,3,4-tetrahydroquinoline-2-ylmethyl]piperazine]  7.74
20. O=C(c1ccccn1)N1c2ccccc2CCC1CN1CCN(c2cccc3[nH]ccc23)CC1 (centres unmarked) [Example 68A32, 1-(4-Indolyl)-4-[1-(2-pyridylcarbonyl)-1,2,3,4-tetrahydroquinoline-2-ylmethyl]piperazine]  7.71
21. O=C(C1CCCCC1)N1c2ccccc2CCC1CN1CCN(c2ccc(Br)c3[nH]ccc23)CC1 (centres unmarked) [Example 35A32, 1-(7-Bromo-4-indolyl)-4-(1-cyclohexanecarbonyl-1,2,3,4-tetrahydroquinoline-2-ylmethyl)piperazine]  7.70
22. COc1ccccc1OCCN(C)CC1CCc2ccccc2N1C(=O)CC(C)(C)C (centres unmarked) [Example 77A1, N-[1-(3,3-Dimethylbutanoyl)-1,2,3,4-tetrahydroquinolin-2-ylmethyl]-N-[2-(2-methoxyphenoxy)ethyl]methylamine]  7.62
23. COc1cc(F)ccc1N1CCN(CC2CCc3cc(-c4c(C)noc4C)ccc3N2C(=O)C2CCCCC2)CC1 (centres unmarked) [Example 64, 1-[1-Cyclohexanecarbonyl-6-(3,5-dimethylisoxazol-4-yl)-1,2,3,4-tetrahydroquinoline-2-ylmethyl]-4-(4-fluoro-2-methoxyphenyl)piperazine]  7.62
24. O=C(Cc1ccc(Cl)cc1)N1c2ccccc2CCC1CN1CCN(c2cccc3[nH]ccc23)CC1 (centres unmarked) [Example 68A30, 1-[1-[2-(4-Chlorophenyl)acetyl]-1,2,3,4-tetrahydroquinoline-2-ylmethyl]-4-(4-indolyl)piperazine]  7.62
25. CC(=O)N1CCC(C(=O)N2c3ccccc3CCC2CN2CCN(c3cccc4[nH]ccc34)CC2)CC1 (centres unmarked) [Example 68A38, 1-[1-(1-Acetylpiperidine-4-carbonyl)-1,2,3,4-tetrahydroquinoline-2-ylmethyl]-4-(4-indolyl)piperazine]  7.61
26. O=C(COc1ccccc1Cl)N1c2ccccc2CCC1CN1CCN(c2cccc3[nH]ccc23)CC1 (centres unmarked) [Example 68A50, 1-[1-[2-(2-Chlorophenoxy)acetyl]-1,2,3,4-tetrahydroquinoline-2-ylmethyl]-4-(4-indolyl)piperazine]  7.56
27. O=C(CCc1ccccc1)N1c2ccccc2CCC1CN1CCN(c2cccc3[nH]ccc23)CC1 (centres unmarked) [Example 68A24, 1-(4-Indolyl)-4-[1-(3-phenylpropionyl)-1,2,3,4-tetrahydroquinoline-2-ylmethyl]piperazine]  7.48
28. O=C1CCC(CC(=O)N2c3ccccc3CCC2CN2CCN(c3cccc4[nH]ccc34)CC2)N1 (centres unmarked) [Example 68A54, 1-(4-Indolyl)-4-[1-[2-(5-oxopyrrolidin-2yl)acetyl]-1,2,3,4-tetrahydroquinoline-2-ylmethyl]piperazine]  7.38
29. O=C(C1CCCCC1)N1c2ccccc2CCC1CN1CCC(c2ccccc2)CC1 (centres unmarked) [Example 72A3, 1-(1-Cyclohexanecarbonyl-1,2,3,4-tetrahydroquinolin-2-ylmethyl)-4-phenylpiperidine]  7.33
